In ChEMBL document CHEMBL1201862, “PubChem BioAssay data set” (2004):
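Interpolation was linear, between the two tested concentrations surrounding the appropriate level; five concentrations were tested over 48 hours in 96-well plates. GI50 marks 50% less growth.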 Activity calls are given as the source filed them. Rule as the data show it: active = GI50 up to about 1.1 µM and inactive = higher.

Legend:
Test in all cases: growth of human tumour cells (NCI), 48 h
[1] = system: DLD-1
[2] = system: DMS-114
[3] = system: DMS-273
[4] = system: KM-20L2
[5] = system: XF498

Measured: GI50

NNc1nnc(-c2ccccc2)nc1Cc1ccccc1
inactive: [1] 13.4 µM | [2] 3.17 µM | [3] 7.26 µM | [4] 3.84 µM | [5] 7.41 µM
